Measurements taken from ChEMBL document CHEMBL2413076, “Synthesis and biological evaluation of ursolic acid-triazolyl derivatives as potential anti-cancer agents” (Eur J Med Chem, 2013).

Key:
THP-1 [1] = assay: Growth inhibition of human THP1 cells assessed as dead cells at 50 uM after 48 hrs by sulforhodamine-B assay relative to control; format: functional; details: THP-1, 48 h, read-out: GI
HCT-116 [2] = assay: Growth inhibition of human HCT116 cells assessed as dead cells at 50 uM after 48 hrs by sulforhodamine-B assay relative to control; format: functional; details: HCT-116, 48 h, read-out: GI
MCF7 [3] = assay: Growth inhibition of human MCF7 cells assessed as dead cells at 50 uM after 48 hrs by sulforhodamine-B assay relative to control; format: functional; details: MCF7, 48 h, read-out: GI
THP-1 [4] = assay: Growth inhibition of human THP1 cells assessed as dead cells at 10 uM after 48 hrs by sulforhodamine-B assay relative to control; format: functional; details: THP-1, 48 h, read-out: GI
THP-1 [5] = assay: Growth inhibition of human THP1 cells after 48 hrs by sulforhodamine-B assay; format: functional, cell-based; details: THP-1, 48 h
A549 [6] = assay: Growth inhibition of human A549 cells after 48 hrs by sulforhodamine-B assay; format: functional, cell-based; details: A549, 48 h
HCT-116 [7] = assay: Growth inhibition of human HCT116 cells after 48 hrs by sulforhodamine-B assay; format: functional, cell-based; details: HCT-116, 48 h
[8] = Growth inhibition of human FR2 cells after 48 hrs by sulforhodamine-B assay; format: cell-based; details: FR2, 48 h
MCF7 [9] = assay: Growth inhibition of human MCF7 cells after 48 hrs by sulforhodamine-B assay; format: functional, cell-based; details: MCF7, 48 h
A549 [10] = assay: Growth inhibition of human A549 cells assessed as dead cells at 50 uM after 48 hrs by sulforhodamine-B assay relative to control; format: functional; details: A549, 48 h, read-out: GI
HCT-116 [11] = assay: Growth inhibition of human HCT116 cells assessed as dead cells at 10 uM after 48 hrs by sulforhodamine-B assay relative to control; format: functional; details: HCT-116, 48 h, read-out: GI
MCF7 [12] = assay: Growth inhibition of human MCF7 cells assessed as dead cells at 10 uM after 48 hrs by sulforhodamine-B assay relative to control; format: functional; details: MCF7, 48 h, read-out: GI
[13] = Growth inhibition of human FR2 cells assessed as dead cells at 10 uM after 48 hrs by sulforhodamine-B assay relative to control; format: cell-based; details: read-out: GI
A549 [14] = assay: Growth inhibition of human A549 cells assessed as dead cells at 10 uM after 48 hrs by sulforhodamine-B assay relative to control; format: functional; details: A549, 48 h, read-out: GI
[15] = Growth inhibition of human FR2 cells assessed as dead cells at 50 uM after 48 hrs by sulforhodamine-B assay relative to control; format: cell-based; details: read-out: GI
THP-1 [16] = assay: Growth inhibition of human THP1 cells assessed as dead cells at 20 uM after 48 hrs by sulforhodamine-B assay relative to control; format: functional; details: THP-1, 48 h, read-out: GI
HCT-116 [17] = assay: Growth inhibition of human HCT116 cells assessed as dead cells at 20 uM after 48 hrs by sulforhodamine-B assay relative to control; format: functional; details: HCT-116, 48 h, read-out: GI
A549 [18] = assay: Growth inhibition of human A549 cells assessed as dead cells at 20 uM after 48 hrs by sulforhodamine-B assay relative to control; format: functional; details: A549, 48 h, read-out: GI
A549 [19] = assay: Growth inhibition of human A549 cells assessed as dead cells at 1 uM after 48 hrs by sulforhodamine-B assay relative to control; format: functional; details: A549, 48 h, read-out: GI
MCF7 [20] = assay: Growth inhibition of human MCF7 cells assessed as dead cells at 1 uM after 48 hrs by sulforhodamine-B assay relative to control; format: functional; details: MCF7, 48 h, read-out: GI

Row | Compound | inhibition of growth at 50 µM (THP-1 [1]) | inhibition of growth at 50 µM (HCT-116 [2]) | inhibition of growth at 50 µM (MCF7 [3]) | inhibition of growth at 10 µM (THP-1 [4]) | IC50 (THP-1 [5]) | IC50 (A549 [6]) | IC50 (HCT-116 [7]) | IC50 [8] | IC50 (MCF7 [9]) | inhibition of growth at 50 µM (A549 [10]) | inhibition of growth at 10 µM (HCT-116 [11]) | inhibition of growth at 10 µM (MCF7 [12]) | inhibition at 48 h, 10 µM [13] | inhibition of growth at 10 µM (A549 [14]) | inhibition at 48 h, 50 µM [15] | inhibition of growth at 20 µM (THP-1 [16]) | inhibition of growth at 20 µM (HCT-116 [17]) | inhibition of growth at 20 µM (A549 [18]) | inhibition of growth at 1 µM (A549 [19]) | inhibition of growth at 1 µM (MCF7 [20])
1 | C#CCOC(=O)[C@]12CC[C@@H](C)[C@H](C)[C@H]1C1=CC[C@@H]3[C@@]4(C)CCC(=O)C(C)(C)[C@@H]4CC[C@@]3(C)[C@]1(C)CC2 | 88% | 96% | 42% | 42% | 13 µM | 15 µM | 2.3 µM | 24 µM | 56 µM | 78% | 74% | 22% | 33% | 50% | 86% |  |  |  |  | 
2 | C[C@H]1[C@H](C)CC[C@]2(C(=O)OCc3cn(-c4ccc(F)cc4F)nn3)CC[C@]3(C)C(=CC[C@@H]4[C@@]5(C)CCC(=O)C(C)(C)[C@@H]5CC[C@]43C)[C@H]12 | 86% | 91% | 73% | 82% | 1.1 µM | 6.4 µM | 0.47 µM | 44 µM | 30 µM | 64% | 69% | 17% | 2% | 57% | 78% |  |  |  |  | 
3 | O=c1[nH]cc(F)c(=O)[nH]1 [FLUOROURACIL] |  |  |  |  |  |  |  |  |  |  |  |  |  |  |  | 96% | 76% | 86% |  | 
4 | CO[C@@]12[C@H](COC(N)=O)C3=C(C(=O)C(C)=C(N)C3=O)N1C[C@@H]1N[C@@H]12 [MITOMYCIN] |  |  |  |  |  |  |  |  |  |  |  |  |  |  |  |  |  |  | 70% | 82%
5 | C[C@H]1[C@H](C)CC[C@]2(C(=O)O)CC[C@]3(C)C(=CC[C@@H]4[C@@]5(C)CC[C@H](O)C(C)(C)[C@@H]5CC[C@]43C)[C@H]12 [URSOLIC ACID] | 84% | 53% | 57% | 31% | 9.1 µM | 33 µM | 42 µM | 31 µM | 37 µM | 61% | 55% | 36% | 31% | 28% | 66% |  |  |  |  | 
